# Test results: ChEMBL document CHEMBL1132705, “Synthesis and biological activities of spiroheterocyclic growth hormone secretagogues” (Bioorg Med Chem Lett, 1999)
# Species on record: Rattus norvegicus
# Assay: Stimulation of growth hormone (GH) release determined in vitro by rat pituitary cell assay.
# Assay type: functional
# Details: Pituitary gland cell
row,Structure (SMILES),EC50 [nM]
1,CC(C)(N)C(=O)N[C@H](CCc1ccccc1)C(=O)N1CCC2(CCc3ccccc32)CC1,22
2,CC(C)(N)C(=O)N[C@H](CCc1ccccc1)C(=O)N1CCC2(CC1)CSc1ccccc12,57
3,CC(C)(N)C(=O)N[C@H](CCC1CCCCC1)C(=O)N1CCC2(CCc3ccccc32)CC1,21
4,CC(C)(N)C(=O)N[C@H](COCc1ccccc1)C(=O)N1CCC2(CC1)COc1ccccc12,8.5
5,CC(C)(N)C(=O)N[C@H](CCCc1ccccc1)C(=O)N1CCC2(CC1)CSc1ccccc12,4.8
6,CC(C)(N)C(=O)N[C@H](Cc1c[nH]c2ccccc12)C(=O)N1CCC2(CC1)CSc1ccccc12,5.6
7,CC(C)(N)C(=O)N[C@H](CCc1ccccc1)C(=O)N1CCC2(CC1)CS(=O)(=O)c1ccccc12,6
8,CC(C)(N)C(=O)N[C@H](CCC1CCCCC1)C(=O)N1CCC2(CC1)CS(=O)(=O)c1ccccc12.Cl,1.4
9,CC(C)(N)C(=O)N[C@H](CCCc1ccccc1)C(=O)N1CCC2(CC1)COc1ccccc12,2.7
10,CC(C)(N)C(=O)N[C@H](CCCc1ccccc1)C(=O)N1CCC2(CC1)C[S+]([O-])c1ccccc12.Cl (stereo partly specified),2
11,CC(C)(N)C(=O)N[C@H](CCC1CCCCC1)C(=O)N1CCC2(CC1)C[S+]([O-])c1ccccc12 (stereo partly specified),3.4
12,CC(C)(N)C(=O)N[C@H](COCc1ccccc1)C(=O)N1CCC2(CC1)CSc1ccccc12,10
13,CC(C)(N)C(=O)N[C@H](COCc1ccccc1)C(=O)N1CCC2(CC1)CS(=O)(=O)c1ccccc12,5
14,CC(C)(N)C(=O)N[C@H](Cc1c[nH]c2ccccc12)C(=O)N1CCC2(CC1)CS(=O)(=O)c1ccccc12,2.1
15,CC(C)(N)C(=O)N[C@H](CCCc1ccccc1)C(=O)N1CCC2(CC1)CS(=O)(=O)c1ccccc12.Cl,1.1
16,CC(C)(N)C(=O)N[C@H](COCc1ccccc1)C(=O)N1CCC2(CC1)C[S+]([O-])c1ccccc12 (stereo partly specified),8.5
17,CC(C)(N)C(=O)N[C@H](CCC1CCCCC1)C(=O)N1CCC2(CC1)CSc1ccccc12,8.1

# Species on record: Canis familiaris
# Assay: Minimum effective dose required for oral activity in beagles that caused at least five fold elevation of growth hormone (GH) over basal levels
# Assay type: functional
# Details: Canis lupus familiaris, read-out: MED
row,Structure (SMILES),minimal effective dose [mg/kg]
1,CC(C)(N)C(=O)N[C@H](CCCc1ccccc1)C(=O)N1CCC2(CCc3ccccc32)CC1.Cl,5
2,CC(C)(N)C(=O)N[C@H](CCC1CCCCC1)C(=O)N1CCC2(CC1)CS(=O)(=O)c1ccccc12.Cl,0.25
3,CC(C)(N)C(=O)N[C@H](CCCc1ccccc1)C(=O)N1CCC2(CC1)C[S+]([O-])c1ccccc12.Cl (stereo partly specified),0.25
4,CC(C)(N)C(=O)N[C@H](CCCc1ccccc1)C(=O)N1CCC2(CC1)CS(=O)(=O)c1ccccc12.Cl,0.125
